ChEMBL document CHEMBL1201862, “PubChem BioAssay data set” (2004)
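A five-concentration, 48-hour dose response in 96-well plates underlies each endpoint, interpolated linearly between surrounding concentrations. GI50 marks 50% less growth.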 Calls of active or inactive are those of the source. Cut-off read from the data, not from the text of the source: active = GI50 up to about 1.1 µM and inactive = higher.

Key:
Test in all cases: DTP human tumour cell line panel, 48 h
Hs-578T = test system: Hs-578T
NCI/ADR-RES = test system: NCI/ADR-RES
ACHN = test system: ACHN
MOLT-4 = test system: MOLT-4
NCI-H226 = test system: NCI-H226
MCF7 = test system: MCF7
UO-31 = test system: UO-31
A498 = test system: A498
K562 = test system: K562
SR = test system: SR
SN12C = test system: SN12C
OVCAR-4 = test system: OVCAR-4
RXF 393 = test system: RXF 393
SNB-19 = test system: SNB-19
HCT-15 = test system: HCT-15
786-0 = test system: 786-0
HL-60 = test system: HL-60
CAKI-1 = test system: CAKI-1
SF-295 = test system: SF-295
EKVX = test system: EKVX
SK-MEL-28 = test system: SK-MEL-28
OVCAR-8 = test system: OVCAR-8
HOP-92 = test system: HOP-92
MDA-N = test system: MDA-N
Malme-3M = test system: Malme-3M
HT-29 = test system: HT-29
SNB-75 = test system: SNB-75
IGROV-1 = test system: IGROV-1
HOP-62 = test system: HOP-62
SK-OV-3 = test system: SK-OV-3
CCRF-CEM = test system: CCRF-CEM
OVCAR-5 = test system: OVCAR-5
M14 = test system: M14
MDA-MB-435 = test system: MDA-MB-435
SF-268 = test system: SF-268
SW-620 = test system: SW-620
LOX IMVI = test system: LOX IMVI
NCI-H522 = test system: NCI-H522
OVCAR-3 = test system: OVCAR-3
DU-145 = test system: DU-145
SK-MEL-5 = test system: SK-MEL-5
COLO 205 = test system: COLO 205
SF-539 = test system: SF-539
RPMI-8226 = test system: RPMI-8226
HCT-116 = test system: HCT-116
KM12 = test system: KM12
T47D = test system: T47D
UACC-62 = test system: UACC-62
NCI-H23 = test system: NCI-H23
BT-549 = test system: BT-549
PC-3 = test system: PC-3
HCC 2998 = test system: HCC 2998
SK-MEL-2 = test system: SK-MEL-2
UACC-257 = test system: UACC-257
U-251 = test system: U-251
A549 = test system: A549
MDA-MB-231 = test system: MDA-MB-231
NCI-H460 = test system: NCI-H460
TK-10 = test system: TK-10

## COc1cc(S(=O)(=O)Nc2ccc(-c3csc(N4C(=O)CSC4c4cccc(Oc5ccccc5)c4)n3)cc2)ccc1Cl (centres undefined)
Hs-578T
  GI50: 27.4 µM (inactive)
NCI/ADR-RES
  GI50: > 100 µM (inactive)
ACHN
  GI50: > 100 µM (inactive)
MOLT-4
  GI50: 52 µM (inactive)
NCI-H226
  GI50: 32.1 µM (inactive)
MCF7
  GI50: 20.6 µM (inactive)
UO-31
  GI50: 47.5 µM (inactive)
A498
  GI50: 59 µM (inactive)
K562
  GI50: 31.9 µM (inactive)
SR
  GI50: 33.7 µM (inactive)
SN12C
  GI50: 61.4 µM (inactive)
OVCAR-4
  GI50: 52.6 µM (inactive)
RXF 393
  GI50: 16.7 µM (inactive)
SNB-19
  GI50: 77.8 µM (inactive)
HCT-15
  GI50: 61.7 µM
786-0
  GI50: 46.9 µM (inactive)
HL-60
  GI50: 21.1 µM (inactive)
CAKI-1
  GI50: > 100 µM (inactive)
SF-295
  GI50: 65.8 µM (inactive)
EKVX
  GI50: 44.2 µM (inactive)
SK-MEL-28
  GI50: 23 µM (inactive)
OVCAR-8
  GI50: 47 µM (inactive)
HOP-92
  GI50: 46.7 µM (inactive)
MDA-N
  GI50: 23.9 µM (inactive)
Malme-3M
  GI50: 43.4 µM (inactive)
HT-29
  GI50: 47 µM (inactive)
SNB-75
  GI50: 58.1 µM (inactive)
IGROV-1
  GI50: 50.7 µM (inactive)
HOP-62
  GI50: 74.3 µM (inactive)
SK-OV-3
  GI50: 71 µM (inactive)
CCRF-CEM
  GI50: 23.8 µM (inactive)
OVCAR-5
  GI50: > 100 µM (inactive)
M14
  GI50: 53 µM (inactive)
MDA-MB-435
  GI50: 33.5 µM (inactive)
SF-268
  GI50: 24.3 µM (inactive)
SW-620
  GI50: 43.8 µM (inactive)
LOX IMVI
  GI50: 32.7 µM (inactive)
NCI-H522
  GI50: 24.2 µM (inactive)
OVCAR-3
  GI50: 64.3 µM (inactive)
DU-145
  GI50: 48.4 µM (inactive)
SK-MEL-5
  GI50: 32.8 µM (inactive)
COLO 205
  GI50: 29.4 µM (inactive)
SF-539
  GI50: 31.9 µM (inactive)
RPMI-8226
  GI50: 39.2 µM (inactive)
HCT-116
  GI50: 29.9 µM (inactive)
KM12
  GI50: 35.2 µM (inactive)
T47D
  GI50: 7.48 µM (inactive)
UACC-62
  GI50: 36.9 µM (inactive)
NCI-H23
  GI50: 40.4 µM (inactive)
BT-549
  GI50: 23.7 µM (inactive)
PC-3
  GI50: 32.7 µM (inactive)

## CN1CCN([C@H]2C[C@H]3[C@@H]4CC=C5C[C@@H](O)CC[C@]5(C)[C@H]4CC[C@]3(C)C2=O)CC1
Hs-578T
  GI50: > 100 µM (inactive)
NCI/ADR-RES
  GI50: > 100 µM (inactive)
HCC 2998
  GI50: > 100 µM (inactive)
SK-MEL-2
  GI50: > 100 µM (inactive)
ACHN
  GI50: > 100 µM (inactive)
MOLT-4
  GI50: > 100 µM (inactive)
NCI-H226
  GI50: > 100 µM (inactive)
MCF7
  GI50: > 100 µM (inactive)
UO-31
  GI50: > 100 µM (inactive)
A498
  GI50: > 100 µM (inactive)
K562
  GI50: 34.3 µM (inactive)
SR
  GI50: 29.4 µM (inactive)
SN12C
  GI50: > 100 µM (inactive)
OVCAR-4
  GI50: > 100 µM (inactive)
RXF 393
  GI50: > 100 µM (inactive)
SNB-19
  GI50: > 100 µM (inactive)
HCT-15
  GI50: > 100 µM
786-0
  GI50: > 100 µM (inactive)
HL-60
  GI50: 31.8 µM (inactive)
CAKI-1
  GI50: > 100 µM (inactive)
SF-295
  GI50: > 100 µM (inactive)
EKVX
  GI50: > 100 µM (inactive)
SK-MEL-28
  GI50: > 100 µM (inactive)
OVCAR-8
  GI50: > 100 µM (inactive)
HOP-92
  GI50: > 100 µM (inactive)
MDA-N
  GI50: > 100 µM (inactive)
Malme-3M
  GI50: > 100 µM (inactive)
HT-29
  GI50: 42.2 µM (inactive)
SNB-75
  GI50: > 100 µM (inactive)
IGROV-1
  GI50: > 100 µM (inactive)
HOP-62
  GI50: > 100 µM (inactive)
SK-OV-3
  GI50: > 100 µM (inactive)
CCRF-CEM
  GI50: > 100 µM (inactive)
OVCAR-5
  GI50: > 100 µM (inactive)
UACC-257
  GI50: > 100 µM (inactive)
M14
  GI50: > 100 µM (inactive)
MDA-MB-435
  GI50: > 100 µM (inactive)
SF-268
  GI50: > 100 µM (inactive)
U-251
  GI50: > 100 µM (inactive)
SW-620
  GI50: > 100 µM (inactive)
LOX IMVI
  GI50: > 100 µM (inactive)
NCI-H522
  GI50: > 100 µM (inactive)
OVCAR-3
  GI50: > 100 µM (inactive)
SK-MEL-5
  GI50: > 100 µM (inactive)
COLO 205
  GI50: > 100 µM (inactive)
A549
  GI50: > 100 µM (inactive)
SF-539
  GI50: 62.5 µM (inactive)
MDA-MB-231
  GI50: > 100 µM (inactive)
RPMI-8226
  GI50: 91 µM (inactive)
HCT-116
  GI50: > 100 µM (inactive)
KM12
  GI50: > 100 µM (inactive)
T47D
  GI50: > 100 µM (inactive)
UACC-62
  GI50: > 100 µM (inactive)
NCI-H23
  GI50: > 100 µM (inactive)
NCI-H460
  GI50: > 100 µM (inactive)
BT-549
  GI50: > 100 µM (inactive)
PC-3
  GI50: > 100 µM (inactive)
TK-10
  GI50: > 100 µM (inactive)
